Measured values published in publication PMC12495443, “Developing inhibitors of the guanosine triphosphate hydrolysis accelerating activity of Regulator of G protein Signaling-14 [drawing 1]” (The Journal of Biological Chemistry, 2025).

Legend:
[1] = target: T1, RGS14 RGS-box (GAP activity on wild-type Gαi1) (Homo sapiens, UniProt O43566); experiment: Single-turnover [γ-33P]GTP hydrolysis assay of RGS-box GAP activity; type: biochemical; conditions: wild-type Gαi1, concentration-dependent
T1 sequence (O43566 67-184 limits assumed): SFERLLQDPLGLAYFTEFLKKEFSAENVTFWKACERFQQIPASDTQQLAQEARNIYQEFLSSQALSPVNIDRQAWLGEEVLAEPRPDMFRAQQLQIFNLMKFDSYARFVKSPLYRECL
Excerpt: To further evaluate the functional activity of these triazolothiadiazine derivatives, and especially to eliminate concerns of misascribing GAP-inhibitory activity to potential assay interference, we tested two representative compounds—Z55660043 and Z55627844—in the gold-standard single-turnover radioactive GTP hydrolysis assay ([7], [58]) (Fig. 6).
The single-turnover radiolabeled-GTP hydrolysis assay is the gold standard assay for RGS-box GAP activity, first described using [γ -^32P]GTP by Berman et al. ([7]) and recently modified for modern performance ([91], [92], [93], [94]) to use readily available [γ-^33P]GTP substrate and perchloric acid quenching. The assay was performed by first pre-loading wild-type (WT) Gα protein (i.e., 750 nM purified, recombinant, wild-type-sequence human Gαi1 protein) with a slight excess (1 μM) of [γ-^33P]GTP for 15 min at 30 °C. Assay initiation involved adding purified recombinant RGS protein previously pre-incubated for 30 min at 30 °C with a candidate inhibitor. […] Supernatant aliquots were then added to liquid scintillation fluid and [^33P]-Pi content (i.e., hydrolyzed GTP) was quantified with a scintillation counter with an appropriate β-transmission window.

[2] = target: T2, human RGS12 RGS-box (wild-type) (Homo sapiens, UniProt O14924); experiment: Transcreener GDP RGScreen fluorescence polarization assay of RGS12 RGS-box GAP activity on Gαi1(DM); type: biochemical; conditions: wild-type RGS12 RGS-box GAP activity, Gαi1(DM), read-out: RGS12 pIC50 (converted)
T2 construct: human RGS12 RGS-box (aa 695–843 of UniProt O14924); host or cells: E. coli
T2 sequence (O14924 695-843): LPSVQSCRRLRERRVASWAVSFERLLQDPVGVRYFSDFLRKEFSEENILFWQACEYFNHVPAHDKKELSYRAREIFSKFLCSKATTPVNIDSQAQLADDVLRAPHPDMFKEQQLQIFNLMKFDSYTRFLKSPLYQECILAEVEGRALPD
Method in brief: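 Steady-state GTP hydrolysis by rate-altered double point-mutant Gαi1 was read by Transcreener GDP fluorescence polarization, with GTP conversion kept below 10% of maximum input. The E. coli-expressed, N-terminal His6-tagged wild-type RGS-boxes were RGS12 aa 695–843 and RGS14 aa 46–195.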

IC50 [2]: 1200 nM
SMILES: COc1ccc(OCc2nnc3n2N=C(c2ccc(OC)c(OC)c2)CS3)cc1 [Z55660043, 6-(3,4-dimethoxyphenyl)-3-[(4-methoxy-phenoxy)methyl]-5H-[1,2,4]triazolo[3,4-b][1,3,4]thiadiazine]
inhibition of RGS14 RGS-box-mediated acceleration of [γ-33P]GTP hydrolysis [1]: inhibit RGS14 RGS-box-mediated acceleration
